Like-named read-outs stand apart in the source and are kept apart here.
Assays:
CYP1A2 = target: T1, CYP1A2 (Homo sapiens, UniProt P05177); test: Direct inhibition (DI) of CYP1A2 in human liver microsomes; format: in vitro ADME; settings: probe Phenacetin, human liver microsomes 0.2 mg/mL, 10 μM compound, read-out: Direct inhibition (DI) 1A2 (Phenacetin)
T1 construct: A system of 100 μL human liver microsomes; from tissue; host or cells: human liver microsomes
T1 sequence (P05177 1-516): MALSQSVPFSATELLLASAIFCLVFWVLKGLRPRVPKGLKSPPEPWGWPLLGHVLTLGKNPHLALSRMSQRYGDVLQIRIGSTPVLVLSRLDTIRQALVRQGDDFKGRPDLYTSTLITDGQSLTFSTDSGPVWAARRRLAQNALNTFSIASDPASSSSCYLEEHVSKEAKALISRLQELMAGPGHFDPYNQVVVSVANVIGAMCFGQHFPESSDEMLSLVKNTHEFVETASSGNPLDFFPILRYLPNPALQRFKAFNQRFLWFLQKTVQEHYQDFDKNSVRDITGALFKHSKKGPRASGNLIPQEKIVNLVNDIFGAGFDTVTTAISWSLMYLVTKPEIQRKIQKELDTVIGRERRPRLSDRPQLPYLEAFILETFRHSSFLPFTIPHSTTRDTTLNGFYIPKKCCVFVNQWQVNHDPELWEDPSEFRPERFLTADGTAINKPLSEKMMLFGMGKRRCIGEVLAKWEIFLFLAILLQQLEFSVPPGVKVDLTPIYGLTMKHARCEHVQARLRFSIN
Method: (§1) Study on Direct Inhibition (DI) of CYP3A4, CYP2D6, CYP2C9, CYP2C19, CYP1A2
(§2) A system of 100 μL human liver microsomes (final concentration: 0.2 mg/mL) was used for direct inhibition under warm incubation. The system contained NADPH (final concentration: 1 mM), 10 μM compound, a positive inhibitor cocktail (Ketoconazole 10 μM, Quinidine: 10 μM, Sulfaphenazole: 100 μM, Naphthoflavone: 10 μM, Tranylcypromene 1000 μM), a negative control 10 μM DMSO and mixed probe substrates (Midazolam 10 μM, Testosterone 100 μM, Dextromethophan 10 μM, Diclofenac 20 μM, Phenetin 100 μM, Mephenytoin 100 μM). The reaction was terminated after incubation for 20 minutes. The relative activity of the enzymes was calculated by measuring the relative production of metabolites.

[1] = tested on: N87 (human gastric cancer cell NCI-N87); test: In vitro proliferation inhibition assay of cell lines (CellTiter-Glo), N87; format: cell-based; settings: N87 cells, 72 hours
Outline: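 Cells seeded overnight (BT-474 8.8×10^4 cells/mL, N87 6.6×10^4 cells/mL), then exposed to 9 compound concentrations in duplicate for 72 hours at 37° C, 5% CO2. Viability read by CellTiter-Glo luminescence.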

[2] = tested on: BT-474 (human breast cancer cell); test: In vitro proliferation inhibition assay of cell lines (CellTiter-Glo), BT-474; format: cell-based; settings: BT-474 cells, 72 hours
Outline: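 Cells were exposed to nine compound concentrations in duplicate for 72 h at 37 °C and 5% CO2. Viability was read with CellTiter-Glo reagent after equilibration at room temperature.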

CYP3A4 = target: T2, CYP3A4 (Homo sapiens, UniProt P08684); test: Direct inhibition (DI) of CYP3A4 in human liver microsomes; format: in vitro ADME; settings: human liver microsomes 0.2 mg/mL, 10 μM compound
T2 construct: A system of 100 μL human liver microsomes; from tissue; host or cells: human liver microsomes
T2 sequence (P08684 whole entry): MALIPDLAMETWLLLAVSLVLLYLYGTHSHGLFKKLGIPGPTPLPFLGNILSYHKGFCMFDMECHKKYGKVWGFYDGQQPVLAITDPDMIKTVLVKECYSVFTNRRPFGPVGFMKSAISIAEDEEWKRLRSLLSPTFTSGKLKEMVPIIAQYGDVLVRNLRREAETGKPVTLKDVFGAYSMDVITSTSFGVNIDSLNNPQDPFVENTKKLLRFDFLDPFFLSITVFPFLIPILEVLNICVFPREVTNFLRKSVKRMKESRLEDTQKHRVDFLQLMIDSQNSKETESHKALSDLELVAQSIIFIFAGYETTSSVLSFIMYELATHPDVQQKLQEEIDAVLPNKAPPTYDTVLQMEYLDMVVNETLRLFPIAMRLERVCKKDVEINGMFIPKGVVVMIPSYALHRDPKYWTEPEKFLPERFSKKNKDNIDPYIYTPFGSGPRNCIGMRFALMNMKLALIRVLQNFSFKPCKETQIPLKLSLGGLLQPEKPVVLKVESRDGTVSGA
Method: as §1, §2

ErbB2 kinase = target: T3, ErbB2 kinase (Homo sapiens, UniProt P04626); test: EGFR/ErbB2 enzymatic experiment (HTRF kinEASE-TK), ErbB2; format: biochemical; settings: ErbB2 kinase 0.06 ng/μL, ATP 4 μM; read-out: Kinase IC50 (nM) in vitro ErbB2
T3 construct: The final concentration of ErbB2 kinase was 0.06 ng/μL
T3 sequence (P04626 23-1255): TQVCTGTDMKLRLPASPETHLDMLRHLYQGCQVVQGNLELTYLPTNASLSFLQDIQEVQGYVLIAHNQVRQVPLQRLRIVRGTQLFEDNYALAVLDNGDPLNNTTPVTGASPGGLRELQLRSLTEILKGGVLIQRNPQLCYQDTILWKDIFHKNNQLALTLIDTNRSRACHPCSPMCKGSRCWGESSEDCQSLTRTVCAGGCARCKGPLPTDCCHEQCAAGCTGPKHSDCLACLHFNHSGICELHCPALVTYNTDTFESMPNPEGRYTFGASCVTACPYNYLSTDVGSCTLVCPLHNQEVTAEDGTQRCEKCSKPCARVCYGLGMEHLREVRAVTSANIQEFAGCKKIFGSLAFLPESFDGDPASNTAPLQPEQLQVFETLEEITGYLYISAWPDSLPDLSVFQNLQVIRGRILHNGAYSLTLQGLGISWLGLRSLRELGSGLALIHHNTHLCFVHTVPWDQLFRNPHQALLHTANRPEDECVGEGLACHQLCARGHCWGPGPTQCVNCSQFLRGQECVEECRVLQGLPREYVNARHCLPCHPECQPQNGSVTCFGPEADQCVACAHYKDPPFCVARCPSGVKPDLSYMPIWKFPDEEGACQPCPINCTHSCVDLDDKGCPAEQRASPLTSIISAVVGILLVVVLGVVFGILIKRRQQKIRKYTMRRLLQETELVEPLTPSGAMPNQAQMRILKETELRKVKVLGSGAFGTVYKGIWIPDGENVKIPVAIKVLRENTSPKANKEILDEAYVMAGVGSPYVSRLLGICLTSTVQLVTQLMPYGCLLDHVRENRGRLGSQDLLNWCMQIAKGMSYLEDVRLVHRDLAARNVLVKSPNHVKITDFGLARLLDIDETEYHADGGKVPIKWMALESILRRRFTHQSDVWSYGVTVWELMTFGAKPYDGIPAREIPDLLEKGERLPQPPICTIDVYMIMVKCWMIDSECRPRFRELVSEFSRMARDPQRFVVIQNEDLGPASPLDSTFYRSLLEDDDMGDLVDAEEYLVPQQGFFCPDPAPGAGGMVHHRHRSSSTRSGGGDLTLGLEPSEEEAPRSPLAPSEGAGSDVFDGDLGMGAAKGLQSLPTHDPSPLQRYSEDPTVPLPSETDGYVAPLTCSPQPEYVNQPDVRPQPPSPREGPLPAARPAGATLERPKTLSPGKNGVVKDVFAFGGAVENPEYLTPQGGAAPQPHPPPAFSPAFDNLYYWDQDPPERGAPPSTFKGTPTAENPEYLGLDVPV

EGFR kinase = EGFR kinase (Homo sapiens, UniProt P00533); test: EGFR/ErbB2 enzymatic experiment (HTRF kinEASE-TK), EGFR; format: biochemical; settings: EGFR kinase 0.06 units/μL, ATP 1.65 μM; read-out: Kinase IC50 (nM) in vitro EGFR
Sequence of EGFR kinase (P00533 25-1210): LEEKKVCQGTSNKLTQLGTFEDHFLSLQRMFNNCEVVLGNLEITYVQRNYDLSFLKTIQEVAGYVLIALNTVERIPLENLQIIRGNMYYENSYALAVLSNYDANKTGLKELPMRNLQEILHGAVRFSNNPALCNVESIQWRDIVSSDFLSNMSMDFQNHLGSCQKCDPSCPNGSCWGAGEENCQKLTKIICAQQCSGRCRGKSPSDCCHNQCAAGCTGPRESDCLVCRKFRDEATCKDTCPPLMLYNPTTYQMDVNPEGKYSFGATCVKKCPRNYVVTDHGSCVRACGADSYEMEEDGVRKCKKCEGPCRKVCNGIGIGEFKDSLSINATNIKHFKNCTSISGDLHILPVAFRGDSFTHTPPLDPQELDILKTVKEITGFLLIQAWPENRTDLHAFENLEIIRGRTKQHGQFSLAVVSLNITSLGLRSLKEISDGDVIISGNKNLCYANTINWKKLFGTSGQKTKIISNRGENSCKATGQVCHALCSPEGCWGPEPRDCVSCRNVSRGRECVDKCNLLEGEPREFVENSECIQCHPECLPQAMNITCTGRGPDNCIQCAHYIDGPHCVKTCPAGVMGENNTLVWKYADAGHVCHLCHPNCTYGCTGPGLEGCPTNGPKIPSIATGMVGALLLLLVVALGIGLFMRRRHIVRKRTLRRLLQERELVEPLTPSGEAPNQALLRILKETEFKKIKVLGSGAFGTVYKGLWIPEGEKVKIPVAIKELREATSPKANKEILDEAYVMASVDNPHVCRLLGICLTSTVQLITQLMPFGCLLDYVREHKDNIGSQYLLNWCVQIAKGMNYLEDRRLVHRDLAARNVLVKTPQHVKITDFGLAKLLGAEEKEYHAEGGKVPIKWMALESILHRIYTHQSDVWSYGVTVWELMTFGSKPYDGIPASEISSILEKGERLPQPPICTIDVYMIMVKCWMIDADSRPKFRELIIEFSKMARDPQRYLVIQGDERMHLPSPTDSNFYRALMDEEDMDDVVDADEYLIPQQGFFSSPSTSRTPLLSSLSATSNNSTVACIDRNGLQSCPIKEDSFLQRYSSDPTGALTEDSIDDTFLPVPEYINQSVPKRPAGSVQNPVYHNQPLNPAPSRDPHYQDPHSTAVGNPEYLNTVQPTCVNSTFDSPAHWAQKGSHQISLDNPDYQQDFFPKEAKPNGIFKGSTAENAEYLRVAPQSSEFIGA

CYP2C19 = target: T4, CYP2C19 (Homo sapiens, UniProt P33261); test: Direct inhibition (DI) of CYP2C19 in human liver microsomes; format: in vitro ADME; settings: probe Mephenytoin, human liver microsomes 0.2 mg/mL, 10 μM compound, read-out: Direct inhibition (DI) 2C19 (Mephenytoin)
T4 construct: A system of 100 μL human liver microsomes; from tissue; host or cells: human liver microsomes
T4 sequence (P33261 whole entry): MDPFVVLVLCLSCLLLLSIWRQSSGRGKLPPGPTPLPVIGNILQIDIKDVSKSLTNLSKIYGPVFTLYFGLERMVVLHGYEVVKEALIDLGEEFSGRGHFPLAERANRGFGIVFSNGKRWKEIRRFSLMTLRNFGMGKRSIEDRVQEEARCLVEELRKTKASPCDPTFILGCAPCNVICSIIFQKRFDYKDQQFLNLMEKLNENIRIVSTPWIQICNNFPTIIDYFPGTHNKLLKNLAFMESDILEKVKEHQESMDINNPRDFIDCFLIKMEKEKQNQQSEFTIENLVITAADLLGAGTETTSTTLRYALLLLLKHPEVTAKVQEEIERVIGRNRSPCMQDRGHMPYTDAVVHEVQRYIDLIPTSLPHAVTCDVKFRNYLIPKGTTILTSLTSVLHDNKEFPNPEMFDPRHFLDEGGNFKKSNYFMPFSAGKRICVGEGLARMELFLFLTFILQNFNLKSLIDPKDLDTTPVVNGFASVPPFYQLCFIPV
Method: as §1, §2

CYP2C9 = target: T5, CYP2C9 (Homo sapiens, UniProt P11712); test: Direct inhibition (DI) of CYP2C9 in human liver microsomes; format: in vitro ADME; settings: probe Diclofenac, human liver microsomes 0.2 mg/mL, 10 μM compound, read-out: Direct inhibition (DI) 2C9 (Diclofenac)
T5 construct: A system of 100 μL human liver microsomes; from tissue; host or cells: human liver microsomes
T5 sequence (P11712 whole entry): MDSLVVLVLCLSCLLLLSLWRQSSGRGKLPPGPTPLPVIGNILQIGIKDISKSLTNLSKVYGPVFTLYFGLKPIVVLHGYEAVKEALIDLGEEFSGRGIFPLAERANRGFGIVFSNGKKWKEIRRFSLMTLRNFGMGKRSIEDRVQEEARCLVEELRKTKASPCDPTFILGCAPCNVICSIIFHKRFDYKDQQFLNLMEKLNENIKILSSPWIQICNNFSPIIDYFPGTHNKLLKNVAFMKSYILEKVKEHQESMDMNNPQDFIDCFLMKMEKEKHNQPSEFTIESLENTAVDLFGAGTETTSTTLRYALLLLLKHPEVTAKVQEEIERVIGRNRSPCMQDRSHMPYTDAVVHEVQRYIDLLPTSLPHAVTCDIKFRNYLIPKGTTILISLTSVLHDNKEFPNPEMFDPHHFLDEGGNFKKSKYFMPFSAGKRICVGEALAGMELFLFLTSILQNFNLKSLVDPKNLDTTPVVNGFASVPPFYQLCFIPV
Method: as §1, §2

CYP2D6 = target: T6, CYP2D6 (Homo sapiens, UniProt P10635); test: Direct inhibition (DI) of CYP2D6 in human liver microsomes; format: in vitro ADME; settings: probe Dextromethorphan, human liver microsomes 0.2 mg/mL, 10 μM compound, read-out: Direct inhibition (DI) 2D6 (Dextromethorphan)
T6 construct: A system of 100 μL human liver microsomes; from tissue; host or cells: human liver microsomes
T6 sequence (P10635 whole entry): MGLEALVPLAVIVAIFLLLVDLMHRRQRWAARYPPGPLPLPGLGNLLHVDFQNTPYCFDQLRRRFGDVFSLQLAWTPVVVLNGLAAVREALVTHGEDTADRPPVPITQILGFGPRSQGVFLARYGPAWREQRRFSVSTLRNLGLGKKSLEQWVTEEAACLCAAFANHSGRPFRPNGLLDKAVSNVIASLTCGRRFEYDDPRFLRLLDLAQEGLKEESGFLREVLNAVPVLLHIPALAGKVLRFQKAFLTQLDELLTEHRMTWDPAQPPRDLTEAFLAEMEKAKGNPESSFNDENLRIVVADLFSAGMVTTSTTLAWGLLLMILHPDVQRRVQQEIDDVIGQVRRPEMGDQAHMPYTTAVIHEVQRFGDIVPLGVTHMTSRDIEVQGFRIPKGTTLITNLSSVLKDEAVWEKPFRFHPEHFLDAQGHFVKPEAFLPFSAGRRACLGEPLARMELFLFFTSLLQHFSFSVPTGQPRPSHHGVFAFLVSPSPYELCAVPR
Method: as §1, §2

[3] = tested on: HER2 overexpressing human gastric cancer NCI-N87 nude mice xenograft; test: HER2 overexpressing human gastric cancer NCI-N87 nude mice xenograft model; format: in vivo; settings: 10 mg/kg, continuous oral administration for 21 days
From the text: We have established nude mice xenograft model for HER2 overexpression.

[4] = probe Midazolam, read-out: Direct inhibition (DI) 3A4 (Midazolam)
[5] = probe Testosterone, read-out: Direct inhibition (DI) 3A4 (testosterone)

| Structure (SMILES) | inhibition at 20 min, 10 µM (CYP1A2) | IC50 [1] | IC50 [2] | inhibition at 20 min, 10 µM (CYP3A4; [4]) | inhibition at 20 min, 10 µM (CYP3A4; [5]) | IC50 (ErbB2 kinase) | IC50 (EGFR kinase) | inhibition at 20 min, 10 µM (CYP2C19) | inhibition at 20 min, 10 µM (CYP2C9) | inhibition at 20 min, 10 µM (CYP2D6) | tumor volume inhibition rate (GI %) [3] |
| --- | --- | --- | --- | --- | --- | --- | --- | --- | --- | --- | --- |
| CCOc1cc2ncnc(Nc3ccc(Oc4cc5nncn5cn4)c(C)c3)c2cc1NC(=O)/C=C/[C@H]1CCCN1 [Final product of Embodiment 17, (R,E)-N-(4-((4-([1,2,4]triazolo[4,3-c]pyrimidin-7-yloxy)-3-methylphenyl)amino)-7-ethoxyquinazolin-6-yl)-3-(pyrrolidin-2-yl)acrylamide] | 3% | 4.97 nM | 5.31 nM | 17% | 34% | 0.488 nM | 0.251 nM | 9% | 8% | 4% | – |
| C=C(F)C(=O)N1CC=C(c2ccc3ncnc(Nc4ccc(Oc5cc6nncn6cn5)c(C)c4)c3c2)CC1 [Final product of Embodiment 6, 1-(4-(4-((4-([1,2,4]triazolo[4,3-c]pyrimidin-7-yloxy)-3-methylphenyl)amino)quinazolin-6-yl)-5,6-dihydropyridin-1(2H)-yl)-2-fluoropropyl-2-en-1-one] | 13% | 24 nM | 16.1 nM | 72% | 80% | 2.92 nM | 233 nM | 41% | 55% | 30% | – |
| CCOc1cc2ncnc(Nc3ccc(Oc4cc5nncn5cn4)c(C)c3)c2cc1NC(=O)/C=C/[C@H]1CCCN1C [Final product of Embodiment 18, (R,E)-N-(4-((4-([1,2,4]triazolo[4,3-c]pyrimidin-7-yloxy)-3-methylphenyl)amino)-7-ethoxyquinazolin-6-yl)-3-(1-methylpyrrolidin-2-yl)acrylamide] | 5% | 1.58 nM | 2.1 nM | 12% | 23% | 0.513 nM | 0.358 nM | 8% | 4% | 4% | – |
| Cc1cc(Nc2ncnc3ccc(NC(=O)/C=C/[C@H]4CCCN4C)cc23)ccc1Oc1ccc2nccn2n1 [Final product of Embodiment 10] | 14% | 3.52 nM | 4.56 nM | 12% | 29% | 1.34 nM | 4.62 nM | 9% | < 0% | 46% | – |
| CCOc1cc2ncc(C#N)c(Nc3ccc(OCc4ccccn4)c(Cl)c3)c2cc1NC(=O)/C=C/CN(C)C [Neratinib, reference compound] | – | – | – | – | – | – | – | – | – | – | 112.5% |
| C=CC(=O)NC1CCC=C(c2ccc3ncnc(Nc4ccc(Oc5cc6nncn6cn5)c(C)c4)c3c2)C1 (centres unmarked) [Final product of Embodiment 1, N-(3-(4-((4-([1,2,4]triazolo[4,3-c]pyrimidin-7-yloxy)-3-methylphenyl)amino)quinazolin-6-yl)cyclohex-3-en-1-yl)acrylamide] | 47% | 4.45 nM | 5.07 nM | 91% | 94% | 0.947 nM | 14.4 nM | 37% | 74% | 25% | – |
| C=CC(=O)N[C@H]1CCCN(c2ccc3ncnc(Nc4ccc(Oc5cc6nncn6cn5)c(C)c4)c3c2)C1 [Final product of Embodiment 5, (S)—N-(1-(4-((4-([1,2,4]triazolo[4,3-c]pyrimidin-7-yloxy)-3-methylphenyl)amino)quinazolin-6-yl)piperidin-3-yl)acrylamide] | 9% | 20.1 nM | 14.4 nM | 71% | 74% | 2.04 nM | 62.1 nM | 18% | 49% | 14% | – |

Now from value to molecule, other results behind:

| inhibition at 20 min, 10 µM (CYP1A2) | IC50 [1] | IC50 [2] | inhibition at 20 min, 10 µM (CYP3A4; [4]) | inhibition at 20 min, 10 µM (CYP3A4; [5]) | IC50 (ErbB2 kinase) | IC50 (EGFR kinase) | inhibition at 20 min, 10 µM (CYP2C19) | inhibition at 20 min, 10 µM (CYP2C9) | inhibition at 20 min, 10 µM (CYP2D6) | Structure (SMILES) | tumor volume inhibition rate (GI %) [3] |
| --- | --- | --- | --- | --- | --- | --- | --- | --- | --- | --- | --- |
| 18% | 2.93 nM | 4.6 nM | 36% | 48% | 6.46 nM | 4.08 nM | 36% | 48% | 90% | Cc1cc(Nc2ncnc3ccc(NC(=O)/C=C/[C@H]4CCCN4C)cc23)ccc1Oc1ccc2nccn2c1 [Final product of Embodiment 24] | – |
| < 0% | 5.43 nM | 4.2 nM | < 0% | 18% | 7.56 nM | 1.62 nM | 10% | 1% | 13% | Cc1cc(Nc2c(C#N)cnc3ccc(NC(=O)/C=C/[C@H]4CCCN4C)cc23)ccc1Oc1cc2nncn2cn1 [Final product of Embodiment 23, (R,E)-N-(4-((4-([1,2,4]triazolo[4,3-c]pyrimidin-7-yloxy)-3-methylphenyl)amino)-3-cyanoquinolin-6-yl)-3-(1-methylpyrrolidin-2-yl)acrylamide] | – |
| < 0% | 1.3 nM | 1.8 nM | < 0% | < 0% | 2.6 nM | 4.7 nM | < 0% | < 0% | 69% | Cc1cc(Nc2ncnc3ccc(NC(=O)/C(F)=C/[C@H]4CCCN4C)cc23)ccc1Oc1cc2nncn2cn1 [Final product of Embodiment 43] | – |
| < 0% | 4.2 nM | 4 nM | 8% | 11% | 3.13 nM | 1.06 nM | 75% | 66% | 6% | CCOc1cc2ncc(C#N)c(Nc3ccc(Oc4cc5nncn5cn4)c(C)c3)c2cc1NC(=O)/C=C/[C@H]1CCCN1 [Final product of Embodiment 32] | – |
